# Results published in patent publication US11370774B2, “Substituted benzofuran, benzopyrrole, benzothiophene, and structurally related complement inhibitors” (BioCryst Pharmaceuticals, Inc., priority 2018, dated 2022).
# Target: Factor D (Homo sapiens (Human), UniProt P00746)
# Assay: Factor D esterolytic assay (Z-Lys-SBzl substrate, DTNB, 405 nm)
# Type: biochemical
# Settings: Z-Lys-SBzl 1.29 mM, pH 7.5, 10% DMSO, tested a minimum of three times, read-out: Measured Ki (IC50) Value for Compounds: IC50
# Summary of the method: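 Thioester hydrolysis (Z-Lys-SBzl, 1.29 mM) by human Factor D ([…]) detected through DTNB color at 405 nm over 600 sec, minus 690 nm background. Buffer: 100 mM HEPES pH 7.5, 500 mM NaCl, 10% DMSO; optional room-temperature preincubation before substrate. IC50 derived from percent rate inhibition; at least three runs.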
# Chain of Factor D (P00746 26-253): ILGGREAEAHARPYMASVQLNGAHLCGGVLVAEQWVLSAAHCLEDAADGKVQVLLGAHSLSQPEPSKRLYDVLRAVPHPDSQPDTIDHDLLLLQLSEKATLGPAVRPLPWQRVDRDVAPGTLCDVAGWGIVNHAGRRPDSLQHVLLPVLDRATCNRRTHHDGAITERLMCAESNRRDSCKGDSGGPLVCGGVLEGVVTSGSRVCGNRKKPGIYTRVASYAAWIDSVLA
row,SMILES,IC50 [nM]
1,"NCc1cccc(-c2nc(C(=O)Nc3ccccc3CC(=O)O)cc3[nH]ccc23)c1 [Compound 83h, 2-(2-(4-(3-(aminomethyl)phenyl)-1H-pyrrolo[3,2-c]pyridine-6-carboxamido)phenyl)acetic acid]",< 1000
2,"COCc1cc2cc(COc3cc(CN)ccc3CC(=O)O)cc(-c3cccc(CN)c3F)c2o1 [Compound 440c, 2-(4-(aminomethyl)-2-((7-(3-(aminomethyl)-2-fluorophenyl)-2-(methoxymethyl)benzofuran-5-yl)methoxy)phenyl)acetic acid]",< 1000
3,"NCc1cccc(-c2cc(COc3cc(F)ccc3CC(=O)O)c(F)c3ccoc23)c1F [Compound 485b, 2-(2-((7-(3-(aminomethyl)-2-fluorophenyl)-4-fluorobenzofuran-5-yl)methoxy)-4-fluorophenyl)acetic acid]",< 1000
4,"NCc1cccc(-c2cc(COc3c(CC(=O)O)ccc4occc34)cc3ccoc23)c1 [Compound 291g, 2-(4-((7-(3-(aminomethyl)phenyl)benzofuran-5-yl)methoxy)benzofuran-5-yl)acetic acid]",< 1000
5,"NCc1cccc(-c2cc(COc3c(CC(=O)O)cccc3-c3ccoc3)cc3ccoc23)c1 [Compound 468h, 2-(2-((7-(3-(aminomethyl)phenyl)benzofuran-5-yl)methoxy)-3-(furan-3-yl)phenyl)acetic acid]",< 1000
6,"Cc1ccc(CC(=O)O)c(OCc2cc(-c3ccnc(CN)c3F)c3occc3c2)c1C [Compound 305d, 2-(2-((7-(2-(aminomethyl)-3-fluoropyridin-4-yl)benzofuran-5-yl)methoxy)-3,4-dimethylphenyl)acetic acid]",< 1000
7,"NCc1cccc(-c2cc(COc3ccccc3CC(=O)O)cc3cc(C(O)C4CC4)oc23)c1 (centres unmarked) [Compound 105c, 2-(2-((7-(3-(aminomethyl)phenyl)-2-(cyclopropyl(hydroxy)methyl)benzofuran-5-yl)methoxy)phenyl)acetic acid]",< 1000
8,"COc1cccc(CC(=O)O)c1OCc1cc(-c2cccc(CN)c2F)c2occc2c1 [Compound 508b, 2-(2-((7-(3-(aminomethyl)-2-fluorophenyl)benzofuran-5-yl)methoxy)-3-methoxyphenyl)acetic acid]",< 1000
9,"Cc1cccc(OCc2cc(-c3cccc(CN)c3)c3occc3c2)c1CC(=O)O [Compound 314f, 2-(2-((7-(3-(aminomethyl)phenyl)benzofuran-5-yl)methoxy)-6-methylphenyl)acetic acid]",< 1000
10,"NCc1cccc(-c2cc(COc3ccccc3C(NC(=O)[C@@H]3C[C@H]3c3ccccc3)C(=O)O)cc3ccoc23)c1 (stereo partly drawn) [Compound 234f, 2-(2-((7-(3-(aminomethyl)phenyl)benzofuran-5-yl)methoxy)phenyl)-2-((1R,2R)-2-phenylcyclopropanecarboxamido)acetic acid]",< 1000
11,"Cc1ccc(CC(=O)O)c(OCc2cc(-c3cccc(C(N)CF)c3)c3occc3c2)c1 (single isomer, unassigned; (+)) [Compound 269h, (+)-2-(2-((7-(3-(1-amino-2-fluoroethyl)phenyl)benzofuran-5-yl)methoxy)-4-methylphenyl)acetic acid]",< 1000
12,"NCc1cccc(-c2cc(COc3ccccc3CC(=O)O)cc3cc(CNCc4ccccc4)oc23)c1 [Compound 283c, 2-(2-((7-(3-(aminomethyl)phenyl)-2-((benzylamino)methyl)benzofuran-5-yl)methoxy)phenyl)acetic acid]",< 1000
13,"NCc1cccc(-c2cc(OC[C@@H]3CCC[C@H]3C(=O)NCc3cccc(Cl)c3F)cc3ccoc23)c1 (relative stereo) [Compound 340e, (trans)-2-(((7-(3-(aminomethyl)phenyl)benzofuran-5-yl)oxy)methyl)-N-(3-chloro-2-fluorobenzyl)cyclopentanecarboxamide]",1000 to 10000
14,"CN(Cc1ccccc1)Cc1cc2cc(COc3ccccc3CC(=O)O)cc(-c3cccc(CN)c3)c2o1 [Compound 287c, 2-(2-((7-(3-(aminomethyl)phenyl)-2-((benzyl(methyl)amino)methyl)benzofuran-5-yl)methoxy)phenyl)acetic acid]",< 1000
15,"NCc1cccc(-c2cc(CC(=O)N3C[C@H](F)C[C@H]3C(=O)NCc3cccc(Cl)c3F)cc3ccoc23)c1 [Compound 368c, (2S,4R)-1-(2-(7-(3-(aminomethyl)phenyl)benzofuran-5-yl)acetyl)-N-(3-chloro-2-fluorobenzyl)-4-fluoropyrrolidine-2-carboxamide]",< 1000
16,"NCc1cccc(-c2nc(C(=O)Nc3ccccc3CC(=O)O)c3ccccc3n2)c1 [Compound 64f, 2-(2-(2-(3-(aminomethyl)phenyl)quinazoline-4-carboxamido)phenyl)acetic acid]",< 1000
17,"Cc1ccc(CC(=O)O)c(OCc2cc(-c3cccc(CN)c3)c3oc(F)cc3c2)c1 [Compound 299c, 2-(2-((7-(3-(aminomethyl)phenyl)-2-fluorobenzofuran-5-yl)methoxy)-4-methylphenyl)acetic acid]",< 1000
18,"NCc1cccc(-c2cc(COc3c(F)cccc3CC(=O)O)cc3ccoc23)c1F [Compound 502c, 2-(2-((7-(3-(aminomethyl)-2-fluorophenyl)benzofuran-5-yl)methoxy)-3-fluorophenyl)acetic acid]",< 1000

row,SMILES,IC50 [nM]
1,"NCc1cccc(-c2cc(COc3ccccc3CC(=O)O)cc3cc(C4CCCC4)oc23)c1 [Compound 82f, 2-(2-((7-(3-(aminomethyl)phenyl)-2-cyclopentylbenzofuran-5-yl)methoxy)phenyl)acetic acid]",< 1000
2,"NCc1cccc(-c2cc(COc3ccccc3CC(=O)O)c(F)c3ccoc23)c1 [Compound 136e, 2-(2-((7-(3-(aminomethyl)phenyl)-4-fluorobenzofuran-5-yl)methoxy)phenyl)acetic acid]",< 1000
3,"NCc1cccc(-c2cc(COc3cccnc3CC(=O)O)cc3ccoc23)c1 [Compound 230e, 2-(3-((7-(3-(aminomethyl)phenyl)benzofuran-5-yl)methoxy)pyridin-2-yl)acetic acid]",1000 to 10000
4,"Cc1ccc(CC(=O)O)c(OCc2cc(-c3cccc(CN)c3F)c3ccn(C)c3c2)c1 [Compound 359b, 2-(2-((4-(3-(aminomethyl)-2-fluorophenyl)-1-methyl-1H-indol-6-yl)methoxy)-4-methylphenyl)acetic acid]",< 1000
5,"COc1ccc(OCc2cc(-c3cccc(CN)c3F)c3ccn(C(C)C)c3c2)c(CC(=O)O)c1 [Compound 475g, 2-(2-((4-(3-(aminomethyl)-2-fluorophenyl)-1-isopropyl-1H-indol-6-yl)methoxy)-5-methoxyphenyl)acetic acid]",< 1000
6,"NCc1cccc(-c2cc(C(=O)Nc3ccccc3CC(=O)O)cc3ccoc23)c1 [Compound 15d, 2-(2-(7-(3-(aminomethyl)phenyl)benzofuran-5-carboxamido)phenyl)acetic acid]",< 1000
7,"Cc1cc2cc(COc3cc(CN)ccc3CC(=O)O)cc(-c3cccc(CN)c3)c2o1 [Compound 257k, 2-(4-(aminomethyl)-2-((7-(3-(aminomethyl)phenyl)-2-methylbenzofuran-5-yl)methoxy)phenyl)acetic acid]",< 1000
8,"COc1ccc(CC(=O)O)c(OCc2cc(-c3cccc(CN)c3)c3oc(F)cc3c2)c1 [Compound 480c, 2-(2-((7-(3-(aminomethyl)phenyl)-2-fluorobenzofuran-5-yl)methoxy)-4-methoxyphenyl)acetic acid]",< 1000
9,"NCc1cccc(-c2cc(COc3cc(C(F)(F)F)ccc3CC(=O)O)cc3ccoc23)c1 [Compound 288f, 2-(2-((7-(3-(aminomethyl)phenyl)benzofuran-5-yl)methoxy)-4-(trifluoromethyl)phenyl)acetic acid]",< 1000
10,"CC(C)Cc1cc2cc(COc3ccccc3CC(=O)O)cc(-c3ccnc(CN)c3F)c2o1 [Compound 220g, 2-(2-((7-(2-(aminomethyl)-3-fluoropyridin-4-yl)-2-isobutylbenzofuran-5-yl)methoxy)phenyl)acetic acid]",< 1000
11,"Cn1cc(-c2ccc(CC(=O)O)c(OCc3cc(-c4cccc(CN)c4)c4occc4c3)c2)cn1 [Compound 396e, 2-(2-((7-(3-(aminomethyl)phenyl)benzofuran-5-yl)methoxy)-4-(1-methyl-1H-pyrazol-4-yl)phenyl)acetic acid]",< 1000
12,"CCCc1cc2cc(COc3ccccc3CC(=O)O)cc(-c3cccc(CN)c3F)c2o1 [Compound 188b, 2-(2-((7-(3-(aminomethyl)-2-fluorophenyl)-2-propylbenzofuran-5-yl)methoxy)phenyl)acetic acid]",< 1000
13,"NCc1cccc(-c2cc(COc3ccc(O)cc3CC(=O)O)cc3ccoc23)c1 [Compound 249f, 2-(2-((7-(3-(aminomethyl)phenyl)benzofuran-5-yl)methoxy)-5-hydroxyphenyl)acetic acid]",< 1000
14,"NCc1cccc(-c2cc(COc3cc(-c4ccncc4)ccc3CC(=O)O)cc3ccoc23)c1 [Compound 323c, 2-(2-((7-(3-(aminomethyl)phenyl)benzofuran-5-yl)methoxy)-4-(pyridin-4-yl)phenyl)acetic acid]",< 1000
15,"COCc1cc2cc(COc3cc(C#N)ccc3CC(=O)O)cc(-c3cccc(CN)c3)c2o1 [Compound 458b, 2-(2-((7-(3-(aminomethyl)phenyl)-2-(methoxymethyl)benzofuran-5-yl)methoxy)-4-cyanophenyl)acetic acid]",< 1000
16,"CC(=O)c1cc2cc(COc3ccccc3CC(=O)O)cc(-c3cccc(CN)c3)c2o1 [Compound 252d, 2-(2-((2-acetyl-7-(3-(aminomethyl)phenyl)benzofuran-5-yl)methoxy)phenyl)acetic acid]",< 1000
17,"NCc1cccc(-c2cc(NC(=O)[C@H]3CCCN3CC(=O)O)cc3ccoc23)c1 [Compound 408e, (R)-2-(2-((7-(3-(aminomethyl)phenyl)benzofuran-5-yl)carbamoyl)pyrrolidin-1-yl)acetic acid]",> 10000
